Data: patent US20060069132A1, “Azolecarboxamide herbicides” (priority 2004, published 2006)

Legend:
corn = test: Test B pre-/postemergence herbicide test; format: in vivo, Zea mays; conditions: for Plant response rating, Corn: preemergence; for Corn plant response rating: postemergence, visual rating, scale 0 (no effect) to 100 (complete control)
How it was run: (§1)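 Test chemicals in a non-phytotoxic solvent mixture with surfactant were applied preemergence to seeded species and postemergence to plants 2-18 cm tall (1- to 4-leaf stage); rice and barnyardgrass were also tested in a flooded paddy at the 2-leaf stage. Visual rating versus controls after 13-15 days in greenhouse, scale 0 (no effect) to 100 (complete control).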

morningglory [1] = test: Test B pre-/postemergence herbicide test; format: in vivo, Ipomoea coccinea; conditions: for Morningglory plant response rating: postemergence, visual rating, scale 0 (no effect) to 100 (complete control)
How it was run: (§2)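 Evaluation is visual, comparing treated with control plants on a scale where 0 means no effect and 100 means full control. Treatments were preemergence, or postemergence on seedlings 2–18 cm tall, and held 13–15 days in the greenhouse.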

blackgrass = test: Test B postemergence herbicide test; format: in vivo, Alopecurus myosuroides; conditions: postemergence, visual rating, scale 0 (no effect) to 100 (complete control)
How it was run: (§3)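 Each value is a visual 0–100 response rating taken against controls 13 to 15 days after treatment in the greenhouse. Plants received formulated chemical postemergence at the 1- to 4-leaf stage or, in flooded paddy, at the 2-leaf stage.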

giant foxtail [2] = test: Test B pre-/postemergence herbicide test; format: in vivo, Setaria faberi; conditions: for Plant response rating, Foxtail, Giant: preemergence; for Foxtail, Giant plant response rating: postemergence, visual rating, scale 0 (no effect) to 100 (complete control)
How it was run: as §1

giant foxtail [3] = test: Test A pre-/postemergence herbicide test; format: in vivo, Setaria faberi
How it was run: (§4)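 Sandy loam soil given preemergence directed spray; plants at 2 to 10 cm, one- to two-leaf stage, sprayed to runoff postemergence, compounds in non-phytotoxic solvent with surfactant. Injury rated visually versus untreated controls after about ten greenhouse days, 0 (no effect) to 100 (complete control); dash means not tested.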

morningglory [4] = test: Test A pre-/postemergence herbicide test; format: in vivo, Ipomoea spp.
How it was run: as §4

wheat = test: Test B postemergence herbicide test; format: in vivo, Triticum aestivum; set-up: key to Wheat plant response rating: 0 = no effect, 100 = complete control; conditions: postemergence, visual rating, scale 0 (no effect) to 100 (complete control)
How it was run: (§5)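 Scale 0–100: zero equals no visible effect, 100 complete control, judged by eye relative to controls. Timing: 13 to 15 days in greenhouse post-treatment. Growth stage at spraying: two leaves (paddy) or one to four leaves, 2–18 cm (postemergence).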

Surinam grass = test: Test B pre-/postemergence herbicide test; format: in vivo, Urochloa decumbens; conditions: for Plant response rating, Surinam Grass: preemergence; for Surinam Grass plant response rating: postemergence, visual rating, scale 0 (no effect) to 100 (complete control)
How it was run: as §1

velvetleaf [5] = test: Test B pre-/postemergence herbicide test; format: in vivo, Abutilon theophrasti; conditions: for Plant response rating, Velvetleaf: preemergence; for Velvetleaf plant response rating: postemergence, visual rating, scale 0 (no effect) to 100 (complete control)
How it was run: as §1

[6] = tested on: small flower umbrella sedge; test: Test B flooded paddy test; format: in vivo, Cyperus difformis; conditions: 1000 g ai/ha, visual rating, scale 0 to 100 (0 no effect, 100 complete control), 13 to 15 days
How it was run: as §3

rice [7] = test: Test B flooded paddy test; format: in vivo, Oryza sativa; conditions: 1000 g ai/ha, visual rating, scale 0 to 100 (0 no effect, 100 complete control), 13 to 15 days
How it was run: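 Paddy species grown to the 2-leaf stage under flooding; blackgrass sprayed postemergence at 2–18 cm (1- to 4-leaf stage). Plants kept in a greenhouse for 13 to 15 days, then visually rated against controls on 0 (no effect) to 100 (complete control).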

barnyardgrass [8] = test: Test B pre-/postemergence herbicide test; format: in vivo, Echinochloa crus-galli; conditions: for Plant response rating, Barnyardgrass: preemergence; for Barnyardgrass plant response rating: postemergence, visual rating, scale 0 (no effect) to 100 (complete control)
How it was run: as §2

velvetleaf [9] = test: Test A pre-/postemergence herbicide test; format: in vivo, Abutilon theophrasti
How it was run: as §4

redroot pigweed = test: Test A pre-/postemergence herbicide test; format: in vivo, Amaranthus retroflexus
How it was run: as §4

cocklebur = test: Test B pre-/postemergence herbicide test; format: in vivo, Xanthium strumarium; conditions: for Plant response rating, Cocklebur: preemergence; for Cocklebur plant response rating: postemergence, visual rating, scale 0 (no effect) to 100 (complete control)
How it was run: as §2

large crabgrass [10] = test: Test B pre-/postemergence herbicide test; format: in vivo, Digitaria sanguinalis; conditions: for Plant response rating, Crabgrass, Large: preemergence; for Crabgrass, Large plant response rating: postemergence, visual rating, scale 0 (no effect) to 100 (complete control)
How it was run: as §1

wild oat = test: Test B postemergence herbicide test; format: in vivo, Avena fatua; conditions: postemergence, visual rating, scale 0 (no effect) to 100 (complete control)
How it was run: as §5

pigweed = test: Test B pre-/postemergence herbicide test; format: in vivo, Amaranthus retroflexus; conditions: for Plant response rating, Pigweed: preemergence; for Pigweed plant response rating: postemergence, visual rating, scale 0 (no effect) to 100 (complete control)
How it was run: as §1

barnyardgrass [11] = test: Test B flooded paddy test; format: in vivo, Echinochloa crus-galli; conditions: 1000 g ai/ha, visual rating, scale 0 to 100 (0 no effect, 100 complete control), 13 to 15 days
How it was run: as §3

large crabgrass [12] = test: Test A pre-/postemergence herbicide test; format: in vivo, Digitaria sanguinalis
How it was run: as §4

ducksalad = test: Test B flooded paddy test; format: in vivo, Heteranthera limosa; conditions: 1000 g ai/ha, visual rating, scale 0 to 100 (0 no effect, 100 complete control), 13 to 15 days
How it was run: as §3

rice [13] = test: Test B pre-/postemergence herbicide test; format: in vivo, Oryza sativa; conditions: 500 g ai/ha; visual rating 0-100, 0 no effect, 100 complete control; preemergence
How it was run: as §1

lambsquarters = test: Test B pre-/postemergence herbicide test; format: in vivo, Chenopodium album; conditions: for Plant response rating, Lambsquarters: preemergence; for Lambsquarters plant response rating: postemergence, visual rating, scale 0 (no effect) to 100 (complete control)
How it was run: as §1

barnyardgrass [14] = test: Test A pre-/postemergence herbicide test; format: in vivo, Echinochloa crus-galli
How it was run: as §4

[15] = 500 g ai/ha, visual rating 0-100, 0 no effect, 100 complete control
[16] = 125 g ai/ha, 0 to 100 scale, 0 is no effect, 100 is complete control
[17] = Postemergence, 250 g ai/ha, 0 to 100 scale, 0 no effect, 100 complete control
[18] = Postemergence, 1000 g ai/ha, 0 to 100 scale, 0 no effect, 100 complete control
[19] = Preemergence, 1000 g ai/ha, visual rating, 0 to 100 scale (0 no effect, 100 complete control)
[20] = preemergence, 250 g ai/ha, visual injury, 0 to 100 scale (0 no effect, 100 complete control)

`CCn1nc(C(C)(C)C)cc1C(=O)Nc1cccc([S+]([O-])C(F)(F)F)c1` (centres unmarked) [Compound 135] was tested, and the “Plant response rating, Corn” value (corn; [15]) was 0, the “Corn plant response rating” value (corn; 125 g ai/ha) was 20 and the “Corn plant response rating” value (corn; 500 g ai/ha) was 30. The “Plant response rating, Corn” value (corn; [16]) was 0, the “Morningglory plant response rating” value (morningglory [1]; 125 g ai/ha) was 30 and the “Morningglory plant response rating” value (morningglory [1]; 500 g ai/ha) was 50. The “Plant response rating, Morningglory” value (morningglory [1]; preemergence, 125 g ai/ha, 0 to 100 scale, 0 is no effect, 100 is complete control) was 10, the “Blackgrass plant response rating” value (blackgrass; 125 g ai/ha) was 0 and the “Blackgrass plant response rating” value (blackgrass; 500 g ai/ha) was 0. The “Plant response rating, Foxtail, Giant” value (giant foxtail [2]; [15]) was 20, the “Foxtail, Giant plant response rating” value (giant foxtail [2]; 125 g ai/ha) was 30 and the “Foxtail, Giant plant response rating” value (giant foxtail [2]; 500 g ai/ha) was 40. For the same compound, the “Plant response rating, Foxtail, Giant” value (giant foxtail [2]; [16]) was 10, the “Foxtail, Giant plant response rating” value (giant foxtail [3]; [17]) was 20 and the “Plant response rating, Foxtail, Giant” value (giant foxtail [3]; [18]) was 30. For the same compound, the “Foxtail, Giant plant response rating” value (giant foxtail [3]; [19]) was 50, the “Foxtail, Giant plant response rating” value (giant foxtail [3]; [20]) was 10 and the “Morningglory plant response rating” value (morningglory [4]; [17]) was 10. The “Plant response rating, Morningglory” value (morningglory [4]; [18]) was 10, the “Morningglory plant response rating” value (morningglory [4]; [19]) was 25 and the “Morningglory plant response rating” value (morningglory [4]; [20]) was 0. The “Wheat plant response rating” value (wheat; 125 g ai/ha) was 20, the “Wheat plant response rating” value (wheat; 500 g ai/ha) was 20 and the “Plant response rating, Surinam Grass” value (Surinam grass; [15]) was 30. The “Surinam Grass plant response rating” value (Surinam grass; 125 g ai/ha) was 30, the “Surinam Grass plant response rating” value (Surinam grass; 500 g ai/ha) was 40 and the “Plant response rating, Surinam Grass” value (Surinam grass; [16]) was 10. The “Plant response rating, Velvetleaf” value (velvetleaf [5]; [15]) was 50, the “Velvetleaf plant response rating” value (velvetleaf [5]; 125 g ai/ha) was 20 and the “Velvetleaf plant response rating” value (velvetleaf [5]; 500 g ai/ha) was 30. For the same compound, the “Plant response rating, Velvetleaf” value (velvetleaf [5]; [16]) was 30, the “Sedge, Umbrella plant response rating” value [6] was 70 and the “Rice plant response rating” value (rice [7]) was 60. For the same compound, the “Plant response rating, Barnyardgrass” value (barnyardgrass [8]; [15]) was 50, the “Barnyardgrass plant response rating” value (barnyardgrass [8]; 125 g ai/ha) was 20 and the “Barnyardgrass plant response rating” value (barnyardgrass [8]; 500 g ai/ha) was 40. The “Plant response rating, Barnyardgrass” value (barnyardgrass [8]; [16]) was 40, the “Velvetleaf plant response rating” value (velvetleaf [9]; [17]) was 15 and the “Plant response rating, Velvetleaf” value (velvetleaf [9]; [18]) was 25. The “Velvetleaf plant response rating” value (velvetleaf [9]; [19]) was 50, the “Velvetleaf plant response rating” value (velvetleaf [9]; [20]) was 5 and the “Pigweed plant response rating” value (redroot pigweed; [17]) was 80. The “Plant response rating, Pigweed” value (redroot pigweed; [18]) was 85, the “Pigweed plant response rating” value (redroot pigweed; [19]) was 85 and the “Pigweed plant response rating” value (redroot pigweed; [20]) was 55. The “Plant response rating, Cocklebur” value (cocklebur; [15]) was 0, the “Cocklebur plant response rating” value (cocklebur; 125 g ai/ha) was 40 and the “Cocklebur plant response rating” value (cocklebur; 500 g ai/ha) was 90. The “Plant response rating, Cocklebur” value (cocklebur; [16]) was 0, the “Plant response rating, Crabgrass, Large” value (large crabgrass [10]; [15]) was 90 and the “Crabgrass, Large plant response rating” value (large crabgrass [10]; 125 g ai/ha) was 20. For the same compound, the “Crabgrass, Large plant response rating” value (large crabgrass [10]; 500 g ai/ha) was 30, the “Plant response rating, Crabgrass, Large” value (large crabgrass [10]; [16]) was 50 and the “Oat, Wild plant response rating” value (wild oat; 125 g ai/ha) was 20. The “Oat, Wild plant response rating” value (wild oat; 500 g ai/ha) was 20, the “Plant response rating, Pigweed” value (pigweed; [15]) was 100 and the “Pigweed plant response rating” value (pigweed; 125 g ai/ha) was 80. The “Pigweed plant response rating” value (pigweed; 500 g ai/ha) was 90, the “Plant response rating, Pigweed” value (pigweed; [16]) was 60 and the “Barnyardgrass plant response rating” value (barnyardgrass [11]) was 60. The “Crabgrass, Large plant response rating” value (large crabgrass [12]; [17]) was 20, the “Plant response rating, Crabgrass, Large” value (large crabgrass [12]; [18]) was 30 and the “Crabgrass, Large plant response rating” value (large crabgrass [12]; [19]) was 90. For the same compound, the “Crabgrass, Large plant response rating” value (large crabgrass [12]; [20]) was 40, the “Ducksalad plant response rating” value (ducksalad) was 80 and the “Plant response rating, Rice” value (rice [13]) was 30. The “Plant response rating, Lambsquarters” value (lambsquarters; [15]) was 100, the “Lambsquarters plant response rating” value (lambsquarters; 125 g ai/ha) was 70 and the “Lambsquarters plant response rating” value (lambsquarters; 500 g ai/ha) was 80. The “Plant response rating, Lambsquarters” value (lambsquarters; [16]) was 30, the “Barnyardgrass plant response rating” value (barnyardgrass [14]; [17]) was 30 and the “Plant response rating, Barnyardgrass” value (barnyardgrass [14]; [18]) was 50. The “Barnyardgrass plant response rating” value (barnyardgrass [14]; [19]) was 65 and the “Barnyardgrass plant response rating” value (barnyardgrass [14]; [20]) was 35.
